Test results taken from patent US11505534B2, “Highly diastereoselective construction of the 4,5-spirocycle via palladium-catalyzed intramolecular alkenylation” (The University of Chicago, priority 2017, dated 2022).

Legend:
[1] = test system: interleukin-2 (IL-2) production in a B cell lymphoma cell line; assay: suppression of interleukin-2 (IL-2) production in a B cell lymphoma cell line; assay type: cell-based; details: 100 micromolar (μM) concentrations of the compounds, preliminary biological testing
From the text: In some embodiments, the presently disclosed subject matter provides phainanoid analogs, as well as compounds that can be used as synthetic intermediates in preparing phainanoids and phainanoid analogs. In particular, the presently disclosed phainanoid analogs include the benzofuran-based 4,5-spirocycle with the strained exocyclic olefin motif present in the “western” part of the natural product phainanoids. Given the inclusion of this motif, it is believed that the presently disclosed phainanoid analogs can be useful as novel immunosuppressive agents, e.g., for the treatment of diseases characterized by an aberrant immune response, such as autoimmune and/or inflammatory diseases, as well as during transplant operations.

melting point | Compound | immunosuppressive activity (suppression of interleukin-2 (IL-2) production) [1]
 | C[C@@]12CCCC=C1[C@@]1(C2)Oc2ccccc2C1=O [Compound 7] | complete suppression
 | C[C@]1(/C=C2\Oc3ccccc3C2=O)[C@@H](O)CC[C@]2(C)c3ccccc3CC[C@@H]12 [Compound 25] | complete suppression
174 to 177 °C | C[C@]12C[C@@]3(Oc4ccccc4C3=O)C1=CC[C@]1(C)c3ccccc3CC[C@@H]21 [Compound 8] | complete suppression
